Source: patent US11607461B2, “Compositions and methods for genetically modifying myosin phosphatase target subunit (Mypt1) gene for lowering blood pressure” (University of Maryland, Baltimore, priority 2016, dated 2023)
Values belong to the molecule of their own block, whether it stands above or below them.

Legend:
[1] = test system: First-order mesenteric arteries (MA1); assay: Wire myography: vasorelaxation to DEA/NO of intact arteries activated with phenylephrine; parameters: species or system mouse; conditions: for EC50: pre-constriction with PE 10 μM, read-out: EC50 relaxation to DEA/NO
From the text: First-order mesenteric arteries (2 mm length; 200-250 μm ID) were dissected free of connective tissue in a HEPES-bicarbonate physiological saline solution containing the following concentrations (in mM): 112 NaCl, 25.7 NaHCO3, 4.9 KCl, 2.0 CaCl2, 1.2 MgSO4, 1.2 KH2PO4, 11.5 glucose, and 10 HEPES. The solution was at pH 7.4 and maintained at 37 C for experiments. Arteries were mounted on a 4-chamber wire myograph (Model 610M, Danish Myo Technology, Aarhus, Denmark). Force was continuously recorded and measured at steady state. Starting tension (IC90) was equally applied to all arteries as previously described (Reho et al., Am J Physiol Heart Circ Physiol 307: H563-573, 2014). Arteries were then primed with 2 separate dose of phenylephrine (10 μM) and allowed to equilibrate for 20 minutes in fresh, heated HEPES-bicarbonate buffer. Intact arteries were subjected to dose response to phenylephrine (α-adrenergic agonist; 1 nM-100 μM), U46619 (thromboxane mimetic; 1 nM-10 μM), and angiotensin II (1 nM-10 μM). Maximal response of MAs to depolarization was assessed with 100 mM KCl. A subset of arteries was permeabilized with α-toxin (1000 U/mL) and subjected to calcium clamp in high relaxing solution (pCa9) containing the following (in mM): 60 KMS, 5 EGTA, 0.02 CaCl2, 9.26 MgCl2, 5.2 Na2ATP, 25 creatine phosphate, and 25 BES with pH 7.1 (intracellular pH) by 1N KOH. […] Vasorelaxation responses to the NO donor DEA/NO were assessed in intact arteries activated with a sub-maximal concentration of phenylephrine (10 μM). Dose response to 8-Br-cGMP (1 nM-100 μM) were assessed in α-toxin permeabilized, calcium-clamped (pCa6; 1 μM) arteries. […]
All data are presented as means±SEM. Data were analyzed and graphed using SigmaPlot software (SYSTAT, Chicago, Ill.). mRNA and protein data and mean arterial pressures were analyzed using a one way ANOVA. Vascular function data were analyzed via One way ANOVA and a Bonferroni post-hoc test or Two way repeated measures ANOVA and a Bonferroni post-hoc test. EC50 were calculated via standard curve analysis. […]

[2] = test system: First-order mesenteric arteries (MA1); assay: Wire myography: force generation, dose response to phenylephrine in intact arteries; conditions: Mus musculus, read-out: EC50 force generation to PE
From the text: (§1) First-order mesenteric arteries (2 mm length; 200-250 μm ID) were dissected free of connective tissue in a HEPES-bicarbonate physiological saline solution containing the following concentrations (in mM): 112 NaCl, 25.7 NaHCO3, 4.9 KCl, 2.0 CaCl2, 1.2 MgSO4, 1.2 KH2PO4, 11.5 glucose, and 10 HEPES. The solution was at pH 7.4 and maintained at 37 C for experiments. Arteries were mounted on a 4-chamber wire myograph (Model 610M, Danish Myo Technology, Aarhus, Denmark). Force was continuously recorded and measured at steady state. Starting tension (IC90) was equally applied to all arteries as previously described (Reho et al., Am J Physiol Heart Circ Physiol 307: H563-573, 2014). Arteries were then primed with 2 separate dose of phenylephrine (10 μM) and allowed to equilibrate for 20 minutes in fresh, heated HEPES-bicarbonate buffer. Intact arteries were subjected to dose response to phenylephrine (α-adrenergic agonist; 1 nM-100 μM), U46619 (thromboxane mimetic; 1 nM-10 μM), and angiotensin II (1 nM-10 μM). Maximal response of MAs to depolarization was assessed with 100 mM KCl. A subset of arteries was permeabilized with α-toxin (1000 U/mL) and subjected to calcium clamp in high relaxing solution (pCa9) containing the following (in mM): 60 KMS, 5 EGTA, 0.02 CaCl2, 9.26 MgCl2, 5.2 Na2ATP, 25 creatine phosphate, and 25 BES with pH 7.1 (intracellular pH) by 1N KOH. Permeabilized arteries were subjected to dose response of calcium. Phenylephrine-induced calcium sensitization was performed under calcium clamp at a sub-maximal concentration of calcium (pCa6; 1 μM) with intracellular calcium stores depleted by preincubation of arteries with 10 μM A-23187. Vessels were activated with 10 μM phenylephrine with or without preincubation with L-NAME (100 μM). Vasorelaxation responses to the NO donor DEA/NO were assessed in intact arteries activated with a sub-maximal concentration of phenylephrine (10 μM). Dose response to 8-Br-cGMP (1 nM-100 μM) were assessed in α-toxin permeabilized, calcium-clamped (pCa6; 1 μM) arteries. Relaxation data are presented as percent of maximal force. All chemicals were purchased from Sigma-Aldrich (St Louis, Mo.).
(§2) All data are presented as means±SEM. Data were analyzed and graphed using SigmaPlot software (SYSTAT, Chicago, Ill.). mRNA and protein data and mean arterial pressures were analyzed using a one way ANOVA. Vascular function data were analyzed via One way ANOVA and a Bonferroni post-hoc test or Two way repeated measures ANOVA and a Bonferroni post-hoc test. EC50 were calculated via standard curve analysis. Significance was accepted with a p<0.05.

[3] = test system: First-order mesenteric arteries (MA1); assay: Wire myography: relaxation to 8-Br-cGMP of α-toxin permeabilized, calcium-clamped arteries; parameters: species or system mouse; conditions: for EC50: α-toxin permeabilized, pCa6
From the text: as §1, §2

[4] = test system: PPP1R12A (Mypt1) exon 24 flanking region; assay: Surveyor nuclease assay on genomic PCR products of transfected HEK293T cells; type: cell-based, human; conditions: constructs tested individually; for Surveyor nuclease products (sizes): control ~750 bp
Experimental: HEK293T cells were seeded at a density of 1×10^5 cells/well in 24-well plates. After 24 hours, while cell confluence reached approximately 80%, cells were transfected with 1µg of sgRNA-px601 vector (experimental conditions) or px601 vector (empty vector) or pIRES-EYFP vector (positive transfection control). All transfections were performed in duplicates using Lipofectamine® 3000 Reagent (Life Technologies/ThermoFisher Scientific, Waltham, Mass.) according to the manufacturer's protocol. Twenty-four hours after transfection, a volume of 0.5 mL of culture medium was added per well (reaching a total volume of 1 mL per well). Cells were harvested 72 hours after transfection; culture medium was removed, cells were trypsinized using Gibco™ TrypLE™ Express (Life Technologies/ThermoFisher Scientific), pelleted and cell pellets were stored at −20° C. The transfection efficiency was evaluated immediately prior to harvesting of cells, by inspection of HEK293T cells transfected with pIRES-EYFP vector using a Leica MZ-FLIII fluorescence microscope equipped with a GFP filter set (Leica Microscopy Systems Ltd., Heerbrugg, Switzerland).
Genomic DNA was purified from the transfected cells using PureLink™ Genomic DNA Mini Kit (Invitrogen/ThermoFisher Scientific, Waltham, Mass.) as per the manufacturer's protocol. In order to investigate if genome editing occurred, locus PCR amplifying a 754 pb-region flanking the exon 24 of PPP1R12A gene was performed using primers MYPT12AE24F 5′-[…]-3′ (SEQ ID NO:3) (intronic region 155894 bp to 155913 bp on PPP1R12A ENSG00000058272) and MYPT12AE24R 5′-[…]-3′ (SEQ ID NO:4) (intronic region 156626 bp to 156647 bp on PPP1R12A ENSG00000058272). PCR conditions were as follows: 95° C. 5 min, then 95° C. 30 s, 53° C. 45 s, 72° C. 60 s for 30 cycles, with 5 min of final extension step at 72° C. PCR products were resolved by 2% agarose gel electrophoresis. When PCR product size was shorter than the control PCR product, genome editing occurred. For PCR products that could not be separated from the control product on 2% agarose gel due to the low resolution of the gel, a surveyor nuclease assay was performed using the Surveyor® Mutation Detection Kit (Integrated DNA Technologies, Coralville, Iowa) as per manufacturer's protocol for better visualization of the edits. The Surveyor® Mutation Detection Kit uses an endonuclease that cleaves DNA with high specificity at sites of mismatches and other distortions, allowing the detection of known and unknown DNA mutations. Briefly, target DNA is amplified by PCR from both wild-type (WT) and mutated DNA, WT and mutant DNA are then hybridized to form heteroduplexes, which are subsequently cleaved by the surveyor endonuclease. When no mutation is present, only homoduplexes are formed and no endonuclease-mediated cleavage is observed.

[5] = E24 cKO MA1s, highest concentration

EC50 ([1]; E24 F/+ (cKO heterozygotes)): 3.3 ± 0.5 nM | EC50 ([1]; E24 F/F (cKO homozygotes)): 2.1 ± 0.5 nM
Molecule: CCN(CC)/[N+]([O-])=N/[O-].[Na+] [DEA/NO]
maximal response to DEA/NO [1, 5]: complete relaxation

EC50 ([2]; 336 h, CON+HS (high salt 4% NaCl, 2 weeks)): 1000 ± 500 nM | EC50 ([2]; CON mice): 500 ± 100 nM | EC50 ([2]; E24 F/+): 600 ± 200 nM | EC50 ([2]; E24 F/F+HS): 3000 ± 1000 nM | EC50 ([2]; E24 F/F+NS): 400 ± 200 nM | EC50 ([2]; E24 F/F): 900 ± 200 nM
Molecule: CNC[C@H](O)c1cccc(O)c1 [PE, phenylephrine]
EC50 ([2]; CON+NS (normal salt diet)): 900 ± 400 nM

Molecule: Nc1nc2c(nc(Br)n2[C@@H]2O[C@@H]3COP(=O)(O)O[C@H]3[C@H]2O)c(=O)[nH]1 [8-Br-cGMP, 8-bromo-cGMP]
EC50 ([3]; CON mice): 95.2 ± 11 nM | EC50 ([3]; E24 F/+): 3 ± 2.5 nM | EC50 ([3]; E24 F/F): 6 ± 1.5 nM | maximal response to 8-Br-cGMP [3, 5]: complete relaxation

B1: sgRNA12: guide RNA, target … (SEQ ID NO: 16); tested cloned in px601 SaCas9 plasmid (nucleic acid)
guide: GAUACAAAGCUAUAAAGUCAGGUUUUAGUACUCUGGAAACAGAAUCUACUAAAACAAGGCAAAAUGCCGUGUUUAUCUCGUCAACUUGUUGGCGAGAUUUUU
genome editing in vitro (in words) [4]: effective genome editing | Surveyor nuclease products (sizes) [4]: 270/480

B2: sgRNA11: guide RNA, target … (SEQ ID NO: 15); tested cloned in px601 SaCas9 plasmid (nucleic acid)
guide: GUUAUGUGUAGCAUUAAUGCAGUUUUAGUACUCUGGAAACAGAAUCUACUAAAACAAGGCAAAAUGCCGUGUUUAUCUCGUCAACUUGUUGGCGAGAUUUUU
genome editing in vitro (in words) [4]: effective genome editing | Surveyor nuclease products (sizes) [4]: 320/430

B3: sgRNA9: guide RNA, target … (SEQ ID NO: 13); tested cloned in px601 SaCas9 plasmid (nucleic acid)
guide: GAGAAUGCUUAUCAUUUAAGGGUUUUAGUACUCUGGAAACAGAAUCUACUAAAACAAGGCAAAAUGCCGUGUUUAUCUCGUCAACUUGUUGGCGAGAUUUUU
genome editing in vitro (in words) [4]: effective genome editing | Surveyor nuclease products (sizes) [4]: 330/420

B4: sgRNA5: guide RNA, target … (SEQ ID NO: 9); tested cloned in px601 SaCas9 plasmid (nucleic acid)
guide: GCAUUAUUUAUUAAUCUGGGAGUUUUAGUACUCUGGAAACAGAAUCUACUAAAACAAGGCAAAAUGCCGUGUUUAUCUCGUCAACUUGUUGGCGAGAUUUUU
genome editing in vitro (in words) [4]: effective genome editing | Surveyor nuclease products (sizes) [4]: 120/630

B5: sgRNA6: guide RNA, target … (SEQ ID NO: 10); tested cloned in px601 SaCas9 plasmid (nucleic acid)
guide: GUAUCUGAAAGGUGACCGGCGUUUUAGUACUCUGGAAACAGAAUCUACUAAAACAAGGCAAAAUGCCGUGUUUAUCUCGUCAACUUGUUGGCGAGAUUUUU
genome editing in vitro (in words) [4]: effective genome editing | Surveyor nuclease products (sizes) [4]: 250/500
